Measurements published in patent US8835472B2, “Compounds, pharmaceutical compositions and uses thereof” (Boehringer Ingelheim International GmbH, priority 2010, dated 2014).

The molecules below were run against human ACC2 (Homo sapiens (Human), UniProt O00763) (assay: ACC2 assay, spectrophotometric 384 well assay (NADH-linked, coupled lactate dehydrogenase/pyruvate kinase reaction)). Conditions: hACC2 construct lacking the 128 N-terminal amino acids; 25° C., 340 nm over 15 minutes.
human ACC2, sequence (O00763 129-2458): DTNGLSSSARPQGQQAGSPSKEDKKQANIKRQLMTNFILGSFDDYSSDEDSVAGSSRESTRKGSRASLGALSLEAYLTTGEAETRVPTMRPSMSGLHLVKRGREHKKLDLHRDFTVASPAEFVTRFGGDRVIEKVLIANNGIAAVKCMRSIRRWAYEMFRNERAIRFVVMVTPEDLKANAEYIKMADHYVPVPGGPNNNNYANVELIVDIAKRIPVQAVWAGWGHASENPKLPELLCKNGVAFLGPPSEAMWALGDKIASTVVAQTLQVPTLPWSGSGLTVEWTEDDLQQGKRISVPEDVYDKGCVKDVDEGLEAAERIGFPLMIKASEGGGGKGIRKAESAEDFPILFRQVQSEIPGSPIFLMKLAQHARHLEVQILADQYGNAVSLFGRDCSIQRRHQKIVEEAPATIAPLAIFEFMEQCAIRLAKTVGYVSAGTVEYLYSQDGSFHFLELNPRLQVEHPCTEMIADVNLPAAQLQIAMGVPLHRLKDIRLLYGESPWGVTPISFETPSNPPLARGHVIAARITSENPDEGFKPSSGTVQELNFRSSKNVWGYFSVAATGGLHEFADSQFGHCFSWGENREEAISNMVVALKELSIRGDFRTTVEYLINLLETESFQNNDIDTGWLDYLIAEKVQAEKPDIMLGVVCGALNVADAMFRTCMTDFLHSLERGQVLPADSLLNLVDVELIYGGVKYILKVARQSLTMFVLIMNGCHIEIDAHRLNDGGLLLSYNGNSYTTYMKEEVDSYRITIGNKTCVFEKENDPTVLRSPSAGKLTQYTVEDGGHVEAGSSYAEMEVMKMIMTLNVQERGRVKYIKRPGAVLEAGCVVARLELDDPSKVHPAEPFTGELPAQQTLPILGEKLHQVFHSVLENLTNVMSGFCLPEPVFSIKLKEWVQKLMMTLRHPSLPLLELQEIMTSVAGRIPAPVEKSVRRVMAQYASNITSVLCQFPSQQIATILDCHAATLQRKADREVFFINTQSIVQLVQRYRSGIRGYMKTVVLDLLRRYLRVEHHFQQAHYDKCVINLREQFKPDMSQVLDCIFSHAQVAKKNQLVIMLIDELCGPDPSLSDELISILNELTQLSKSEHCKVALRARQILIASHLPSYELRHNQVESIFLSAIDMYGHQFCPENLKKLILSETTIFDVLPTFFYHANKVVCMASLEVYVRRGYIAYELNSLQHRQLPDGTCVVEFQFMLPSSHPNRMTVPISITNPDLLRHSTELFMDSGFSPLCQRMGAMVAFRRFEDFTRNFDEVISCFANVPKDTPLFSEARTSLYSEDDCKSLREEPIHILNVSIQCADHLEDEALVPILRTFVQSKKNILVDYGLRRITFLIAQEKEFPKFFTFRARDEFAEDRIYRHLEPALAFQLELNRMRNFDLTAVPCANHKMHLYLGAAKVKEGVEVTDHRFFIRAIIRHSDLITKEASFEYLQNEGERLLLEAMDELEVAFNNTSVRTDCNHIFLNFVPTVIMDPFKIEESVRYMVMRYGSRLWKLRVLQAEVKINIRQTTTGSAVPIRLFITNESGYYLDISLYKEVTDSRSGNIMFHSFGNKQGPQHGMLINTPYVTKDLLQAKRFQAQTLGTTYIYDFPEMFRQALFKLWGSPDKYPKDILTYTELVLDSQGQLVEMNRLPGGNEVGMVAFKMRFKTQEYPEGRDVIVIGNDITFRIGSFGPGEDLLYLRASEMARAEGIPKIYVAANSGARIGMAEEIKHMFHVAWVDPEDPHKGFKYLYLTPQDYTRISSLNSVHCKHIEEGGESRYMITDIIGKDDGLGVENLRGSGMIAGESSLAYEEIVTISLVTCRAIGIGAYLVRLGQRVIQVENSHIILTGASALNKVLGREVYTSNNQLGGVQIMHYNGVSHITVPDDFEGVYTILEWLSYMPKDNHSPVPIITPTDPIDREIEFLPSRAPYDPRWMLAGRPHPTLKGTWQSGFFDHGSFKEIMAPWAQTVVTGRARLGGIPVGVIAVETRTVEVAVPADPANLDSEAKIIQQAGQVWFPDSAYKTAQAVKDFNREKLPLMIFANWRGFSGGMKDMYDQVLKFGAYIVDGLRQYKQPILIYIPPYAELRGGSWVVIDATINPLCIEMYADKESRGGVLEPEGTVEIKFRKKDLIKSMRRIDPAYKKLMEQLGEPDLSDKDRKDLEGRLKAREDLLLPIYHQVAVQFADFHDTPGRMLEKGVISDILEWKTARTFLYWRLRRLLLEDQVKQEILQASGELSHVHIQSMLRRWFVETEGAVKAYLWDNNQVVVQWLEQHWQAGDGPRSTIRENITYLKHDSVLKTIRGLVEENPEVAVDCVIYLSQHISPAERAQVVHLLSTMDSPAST
Format: biochemical
Protocol: Spectrophotometric 384 Well Assay
Malonyl CoA formation by acetyl CoA carboxylases is stoichometrically linked to the consumption of ATP. ACC2 activity is measured in a NADH-linked kinetic method measuring ADP generated during the ACC reaction using a coupled lactate dehydrogenase/pyruvate kinase reaction.
For biological testing, a human ACC2 construct which lacks the 128 amino acids at the N-terminus for increased solubility (nt 385-6966 in Genbank entry AJ575592) is cloned. The protein is then expressed in insect cells using a baculoviral expression system. Protein purification is performed by anion exchange.
All compounds are dissolved in dimethyl sulfoxide (DMSO) to a concentration of 10 mM.
Assay reactions are then carried out in 384-well plates, with hACC2 in an appropriate dilution and at final assay concentrations (f.c.) of 100 mM Tris (pH 7.5), 10 mM trisodium citrate, 25 mM KHCO3, 10 mM MgCl2, 0.5 mg/mL BSA, 3.75 mM reduced L-glutathione, 15 U/mL lactate dehydrogenase, 0.5 mM phosphoenolpyruvate, 15 U/mL pyruvate kinase, compounds at different concentrations at final DMSO concentrations of 1%.
The enzymatic reaction is then started by addition of a mixture of NADH, acetyl Coenzyme A (both 200 μM f.c.) and ATP (500 uM f.c.). The decrease of the optical density (slope S) is then determined at 25° C. at a wavelength of 340 nm over 15 minutes in a spectrophotometric reader.
Each assay microtiter plate contains wells with vehicle instead of compound as controls for the non-inhibited enzyme (100% CTL; ‘HIGH’) and wells without acetyl-CoA as controls for non-specific NADH degradation (0% CTL; ‘LOW’).
The slope S is used for calculation of % CTL=(S(compound)−S(‘LOW’))/(S(‘HIGH’)−S(‘LOW’))*100. Compounds will give values between 100% CTL (no inhibition) and 0% CTL (complete inhibition).
For IC50 value determination, the sample slope in the presence of the test compound after subtraction of the low controls (S(compound)−S(‘LOW’)) are used. An IC50 value is derived from the compound slopes at different dosages after subtraction of the low controls (S(compound)−S(‘LOW’)) by non-linear regression curve fitting (equation y=(A+((B−A)/(1+((C/x)^D))))).
`CCOc1cc(C#Cc2ccc(C[C@H](C)NC(C)=O)cc2)ccn1` (stereo in doubt) [Example 23.1, N-{2-[4-(2-Ethoxy-pyridin-4-ylethynyl)-phenyl]-1-methyl-ethyl}-acetamide] gave an IC50 of 230 nM. `CCC(C)Nc1ncc(C#Cc2ccc(CC(C)NC(C)=O)cc2)cn1` (stereo not drawn) [15.1] was tested, and the IC50 was 160 nM. For `CCOc1cc(C#Cc2ccc(CC(C)NC(C)=O)cc2)ncn1` (stereo not drawn) [17.1], the IC50 was 1900 nM. In the case of `CCOc1ccc(C#Cc2ccc(CC(C)N3CC(C)(C)C3=O)cc2)cc1` (stereo not drawn) [19.1], the IC50 is reported as 1800 nM. `CC(=O)NC(C)Cc1ccc(C#Cc2ccc(-c3ccccc3)cc2)cc1` (stereo not drawn) [21.1] was tested, and the IC50 was 130 nM. With `COc1ccc(C#Cc2ccc(CC(C)NC(C)=O)cc2)cc1OC` (stereo not drawn) [22.1] the IC50 was 1600 nM. For `CC(=O)NC(C)Cc1ccc(C#Cc2ccc(C(C)(C)C)cc2)cc1` (stereo not drawn) [25.1], the IC50 was 140 nM. Work on `CCOc1ccc(C#Cc2ccc(CCNC(C)=O)nc2)cc1` [26.1] yielded an IC50 of 7200 nM. For `C[C@H](NC(=O)C1CC1)c1ccc(I)cc1` [28.1], the IC50 was 24400 nM. In the case of `CC(=O)NC(C)Cc1ccc(C#Cc2ccnc(N(C)C3CCCC3)n2)cc1` (stereo not drawn) [30.1], the IC50 is reported as 330 nM. `CC(Cc1ccc(C#Cc2cnc(OC3CCC3)nc2)cc1)NC(=O)c1cncs1` (stereo not drawn) [34.1] gave an IC50 of 170 nM. `CC(=O)NC(C)Cc1ccc(C#Cc2ccc(Cl)cc2)cc1` (stereo not drawn) [Example 1.1, N-(1-(4-((4-Chlorophenyl)ethynyl)phenyl)propan-2-yl)acetamide] gave an IC50 of 530 nM. Work on `CC(=O)NC(C)Cc1ccc(C#Cc2ccc(C)cc2)cc1` (stereo not drawn) [Example 1.2] yielded an IC50 of 810 nM. Work on `CC(=O)NC(C)Cc1ccc(C#Cc2ccc(-c3ccc(Cl)cc3)nn2)cc1` (stereo not drawn) [Example 1.3] yielded an IC50 of 690 nM. Work on `CC(=O)NC(C)Cc1ccc(C#Cc2cccc3ccccc23)cc1` (stereo not drawn) [Example 1.4] yielded an IC50 of 2000 nM. Molecule `CC(=O)NC(C)Cc1ccc(C#Cc2ccc(C(=O)O)cc2)cc1` (stereo not drawn) [Example 1.5] has an IC50 of 2400 nM. In the case of `CC(=O)NC(C)Cc1ccc(C#Cc2ccc3ccccc3c2)cc1` (stereo not drawn) [Example 1.6], the IC50 is reported as 880 nM. `CC(=O)NC(C)Cc1ccc(C#Cc2cccc(OC(F)F)c2)cc1` (stereo not drawn) [Example 1.7] gave an IC50 of 4900 nM. Work on `CC(=O)NC(C)Cc1ccc(C#Cc2ccc(Oc3ccccc3)nc2)cc1` (stereo not drawn) [Example 1.8] yielded an IC50 of 200 nM. `CC(=O)NC(C)Cc1ccc(C#Cc2cccc(C(=O)N3CCN(C(C)C)CC3)c2)cc1` (stereo not drawn) [Example 1.9] was tested, and the IC50 was 8400 nM. `CC(=O)NC(C)Cc1ccc(C#Cc2ccc(C(=O)N3CCOCC3)cc2)cc1` (stereo not drawn) [Example 1.10] was tested, and the IC50 was 5500 nM. For `CC(=O)NC(C)Cc1ccc(C#Cc2ccc(C(=O)NCC(F)(F)F)cc2)cc1` (stereo not drawn) [Example 1.11], the IC50 was 1700 nM. With `CC(=O)NC(C)Cc1ccc(C#Cc2ccc(C(=O)NCc3ccccc3)cc2)cc1` (stereo not drawn) [Example 1.12] the IC50 was 2300 nM. `COc1ccc(-c2cnc(C#Cc3ccc(CC(C)NC(C)=O)cc3)cn2)cc1` (stereo not drawn) [Example 1.13] was tested, and the IC50 was 1100 nM. `CC(=O)NC(C)Cc1ccc(C#Cc2cnc(-c3ccc(Cl)cc3)cn2)cc1` (stereo not drawn) [Example 1.14] showed an IC50 of 200 nM. Molecule `CC(=O)NC(C)Cc1ccc(C#Cc2ccc(-c3ccc(F)cc3)cn2)cc1` (stereo not drawn) [Example 1.16] has an IC50 of 120 nM. `CC(=O)NC(C)Cc1ccc(C#Cc2ccc(-c3ccc(C)cc3)cn2)cc1` (stereo not drawn) [Example 1.17] was tested, and the IC50 was 390 nM. `CC(=O)NC(C)Cc1ccc(C#Cc2ccc(C(=O)N3CCCC3)c(C)c2)cc1` (stereo not drawn) [Example 1.18] was tested, and the IC50 was 990 nM. Molecule `CC(=O)NC(C)Cc1ccc(C#Cc2ccc(N(C)C)cc2)cc1` (stereo not drawn) [Example 1.19] has an IC50 of 1500 nM. Work on `CC(=O)NC(C)Cc1ccc(C#Cc2ccc(OC(C)C)cn2)cc1` (stereo not drawn) [Example 1.20] yielded an IC50 of 610 nM. In the case of `CCc1ccc(C#Cc2ccc(CC(C)NC(C)=O)cc2)cc1` (stereo not drawn) [Example 1.21], the IC50 is reported as 400 nM. In the case of `CC(=O)NC(C)Cc1ccc(C#Cc2ccc(C(C)C)cc2)cc1` (stereo not drawn) [Example 1.22], the IC50 is reported as 290 nM. `CC(=O)NC(C)Cc1ccc(C#Cc2cccc(C(C)=O)c2)cc1` (stereo not drawn) [Example 1.23] showed an IC50 of 1000 nM. `CC(=O)NC(C)Cc1ccc(C#Cc2ccc(Br)cc2F)cc1` (stereo not drawn) [Example 1.24] gave an IC50 of 1100 nM. `CC(=O)NC(C)Cc1ccc(C#Cc2ccc3c(ccn3CCO)c2)cc1` (stereo not drawn) [Example 1.25] was tested, and the IC50 was 5100 nM. `COc1ccc(C#Cc2ccc(CC(C)NC(C)=O)cc2)c(C)c1` (stereo not drawn) [Example 1.26] showed an IC50 of 320 nM. For `CC(=O)NC(C)Cc1ccc(C#Cc2cccc(OC(C)C)c2)cc1` (stereo not drawn) [Example 1.27], the IC50 was 550 nM. `CCOc1ccc(C#Cc2ccc(CC(C)NC(C)=O)cc2)cc1` (stereo not drawn) [Example 1.28, N-{2-[4-(4-ethoxy-phenylethynyl)-phenyl]-1-methyl-ethyl}-acetamide] gave an IC50 of 120 nM. Molecule `CC(=O)NC(C)Cc1ccc(C#Cc2ccc(OC(C)C)cc2)cc1` (stereo not drawn) [Example 1.29] has an IC50 of 250 nM. For `COc1ccc(C#Cc2ccc(C(C)NC(C)=O)cc2)c(C)c1` (stereo not drawn) [Example 1.30], the IC50 was 2100 nM. For `CC(Cc1ccc(C#Cc2ccc(-c3ccc(F)cc3)cn2)cc1)NC(=O)C1CC1` (stereo not drawn) [Example 1.31], the IC50 was 450 nM. `CC(=O)NC(C)Cc1ccc(C#Cc2cccc(C(=O)N3CCOCC3)c2)cc1` (stereo not drawn) [Example 1.32] showed an IC50 of 16900 nM. `CC(=O)NC(C)Cc1ccc(C#Cc2ccc(-n3cccc3)cc2)cc1` (stereo not drawn) [Example 2.1, N-(1-(4-((4-(1H-Pyrrol-1-yl)phenyl)ethynyl)phenyl)propan-2-yl)acetamide] was tested, and the IC50 was 460 nM. Molecule `CCOC(=O)c1cccc(C#Cc2ccc(CC(C)NC(C)=O)cc2)c1` (stereo not drawn) [Example 2.2] has an IC50 of 390 nM. Molecule `CC(=O)NC(C)Cc1ccc(C#Cc2ccc(C(F)(F)F)cc2Cl)cc1` (stereo not drawn) [Example 2.3] has an IC50 of 1400 nM. Molecule `CC(=O)NC(C)Cc1ccc(C#Cc2cccc3ncccc23)cc1` (stereo not drawn) [Example 2.4] has an IC50 of 3300 nM. `CC(=O)NC(C)Cc1ccc(C#Cc2ccc(OCC3(N)CC3)c(C)c2)cc1` (stereo not drawn) [Example 2.5] gave an IC50 of 820 nM. `CC(=O)NC(C)Cc1ccc(C#Cc2ccc(N3CCCCC3=O)cc2)cc1` (stereo not drawn) [Example 2.6] showed an IC50 of 1400 nM. `CC(=O)NC(C)Cc1ccc(C#Cc2ccc(OC(F)F)cc2)cc1` (stereo not drawn) [Example 2.7] gave an IC50 of 760 nM. `CC(=O)NC(C)Cc1ccc(C#Cc2ccc3c(c2)CCO3)cc1` (stereo not drawn) [Example 2.8] gave an IC50 of 730 nM. In the case of `COc1ncc(C#Cc2ccc(CC(C)NC(C)=O)cc2)c(OC)n1` (stereo not drawn) [Example 2.9], the IC50 is reported as 1500 nM. With `CC(=O)NC(C)Cc1ccc(C#Cc2ccc(OC(F)(F)F)cc2C#N)cc1` (stereo not drawn) [Example 2.10] the IC50 was 7500 nM. Work on `CC(=O)NC(C)Cc1ccc(C#Cc2ccc(C(C)(C)C)cc2C#N)cc1` (stereo not drawn) [Example 2.11] yielded an IC50 of 270 nM. In the case of `CC(=O)NC(C)Cc1ccc(C#Cc2ccc(CN3CCCC3)cc2)cc1` (stereo not drawn) [Example 2.12], the IC50 is reported as 6700 nM. In the case of `COc1ncccc1C#Cc1ccc(CC(C)NC(C)=O)cc1` (stereo not drawn) [Example 2.13], the IC50 is reported as 5300 nM. Work on `CCCOc1cc(C#Cc2ccc(CC(C)NC(C)=O)cc2)ccn1` (stereo not drawn) [Example 2.14] yielded an IC50 of 130 nM. `CC(=O)NC(C)Cc1ccc(C#Cc2ccc(Br)cc2)cc1` (stereo not drawn) [Example 2.15] showed an IC50 of 560 nM. `CC(=O)NC(C)Cc1ccc(C#Cc2ccc(Oc3ccccc3)cc2)cc1` (stereo not drawn) [Example 2.16] showed an IC50 of 120 nM. `CC(=O)NC(C)Cc1ccc(C#Cc2ccc(OCC(C)C)cc2)cc1` (stereo not drawn) [Example 2.17] was tested, and the IC50 was 110 nM. For `CC(=O)NC(C)Cc1ccc(C#Cc2ccc(CCO)cc2)cc1` (stereo not drawn) [Example 2.18], the IC50 was 2200 nM. Work on `CC(=O)NC(C)Cc1ccc(C#Cc2ccc(C(C)=O)cc2)cc1` (stereo not drawn) [Example 2.19] yielded an IC50 of 3600 nM. For `CCCc1ccc(C#Cc2ccc(CC(C)NC(C)=O)cc2)cc1` (stereo not drawn) [Example 2.20], the IC50 was 300 nM. `CC(=O)NC(C)Cc1ccc(C#Cc2ccc(OC(C)C)nc2)cc1` (stereo not drawn) [Example 2.21] showed an IC50 of 240 nM. `COc1ccc(C#Cc2ccc(CC(C)NC(C)=O)cc2)cn1` (stereo not drawn) [Example 2.22] gave an IC50 of 720 nM. Molecule `CC(=O)NC(C)Cc1ccc(C#Cc2ccc(OCC3CC3)nc2)cc1` (stereo not drawn) [Example 2.23] has an IC50 of 320 nM. Molecule `COCCOc1ccc(C#Cc2ccc(CC(C)NC(C)=O)cc2)cn1` (stereo not drawn) [Example 2.24] has an IC50 of 760 nM. `CC(=O)NC(C)Cc1ccc(C#Cc2ccc(OC3CCCC3)nc2)cc1` (stereo not drawn) [Example 2.25] showed an IC50 of 170 nM. With `CC(=O)NC(C)Cc1ccc(C#Cc2ccc(Oc3cncnc3)nc2)cc1` (stereo not drawn) [Example 2.26] the IC50 was 930 nM. `CCCOc1ccc(C#Cc2ccc(CC(C)NC(C)=O)cc2)cn1` (stereo not drawn) [Example 2.27] was tested, and the IC50 was 280 nM. `CCOc1cc(C#Cc2ccc(CC(C)NC(C)=O)cc2)ccn1` (stereo not drawn) [Example 2.28] was tested, and the IC50 was 270 nM. `CCOc1ccc(C#Cc2ccc(CC(C)NC(C)=O)cc2)nn1` (stereo not drawn) [Example 2.29] showed an IC50 of 1600 nM. In the case of `COc1ccc(C#Cc2ccc(CC(C)NC(C)=O)cc2)cc1` (stereo not drawn) [Example 2.30], the IC50 is reported as 330 nM. `CCOc1ccc(C#Cc2ccc(CC(C)NC(C)=O)cc2)cn1` (stereo not drawn) [Example 2.31] showed an IC50 of 280 nM. In the case of `CCCOc1ccc(C#Cc2ccc(CC(C)NC(C)=O)cc2)c(OC)c1` (stereo not drawn) [Example 2.32], the IC50 is reported as 160 nM. For `CC(=O)NCC(C)(C)c1ccc(C#Cc2cnc(NC3CCC3)nc2)cc1` [Example 2.33], the IC50 was 270 nM.
